From patent publication US9474790B2, “Stable, protracted GLP-1/glucagon receptor co-agonists for medical use” (Novo Nordisk A/S, priority 2013, dated 2016) come the findings set out here.

Numbered stars: 1 amine (or outer) side, 2 acyl side, 3 side chain; on linkers, the order of the positions; unused ones are H or OH. Square brackets hold non-standard residues; d marks the D form. Side chains are listed from the residue outwards. Peptide text beside a SMILES is read from it. * marks the point of attachment. C18 diacid = O=C(O)CCCCCCCCCCCCCCCCC(=O)*; γGlu = O=C(O)[C@H](CCC(=O)[*:2])N[*:1]; Ac4c = NC1(C(=O)O)CCC1; AEEA = NCCOCCOCC(=O)O; Aib = CC(C)(N)C(=O)O

Series [1] concerns the target T1, human GLP-1 receptor (Homo sapiens, UniProt P43220).
T1 construct: expressed in transfected cells; host or cells: BHK cells (parent BHKTS13), clone FCW467-12A/KZ10-1, with CRE luciferase
Nature of the series: GLP-1 receptor binding, 125I-GLP-1 displacement SPA on isolated membranes. The following applies: displacement of 125I-GLP-1 from membranes; read-out: IC50 GLP-1R. The method, boiled down:
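SPA displacement of 125I-GLP-1(7-36)NH2 from membranes of BHK cells expressing human GLP-1 receptor, with WGA beads, in 50 mM HEPES, 5 mM EGTA, 5 mM MgCl2, 0.005% Tween 20, pH 7.4. Incubated 2 h at 30°C; IC50 by non-linear regression, run at ≤0.001% or 2.0% final serum albumin.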

A short description of series [2]: Chemical stability assessment by RP-UPLC. The series is classed as physicochemical. The following applies: 333 μM, 8 mM phosphate buffer pH 7.3, 37° C. vs 5° C. The method, boiled down:
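Purity loss = (purity after 14 days at 5° C. minus that at 37° C.) relative to the 5° C. value, purity being main-peak area % by RP-UPLC with UV at 215 nm. Samples were 333 μM in 8 mM phosphate, pH 7.3; gradient adjusted for outlying retention times.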

T1 sequence (P43220 24-463): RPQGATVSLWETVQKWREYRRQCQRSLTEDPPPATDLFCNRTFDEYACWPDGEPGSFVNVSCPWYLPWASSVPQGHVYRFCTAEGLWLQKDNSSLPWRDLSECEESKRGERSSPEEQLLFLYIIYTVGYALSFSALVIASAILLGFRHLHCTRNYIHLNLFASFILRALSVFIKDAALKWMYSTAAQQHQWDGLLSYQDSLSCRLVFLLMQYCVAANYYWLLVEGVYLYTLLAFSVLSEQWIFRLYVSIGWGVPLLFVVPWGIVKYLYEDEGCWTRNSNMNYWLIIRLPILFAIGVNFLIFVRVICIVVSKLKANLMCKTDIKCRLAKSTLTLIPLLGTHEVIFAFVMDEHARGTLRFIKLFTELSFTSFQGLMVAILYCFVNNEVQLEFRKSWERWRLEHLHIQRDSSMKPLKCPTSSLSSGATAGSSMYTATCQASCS

For the compound `CC(C)C[C@H](NC(=O)[C@H](Cc1ccc(O)cc1)NC(=O)[C@H](CCCCN)NC(=O)[C@H](CO)NC(=O)[C@H](CC(C)C)NC(=O)[C@H](CC(=O)O)NC(=O)[C@H](CO)NC(=O)[C@@H](NC(=O)[C@H](Cc1ccccc1)NC(=O)[C@@H](NC(=O)CNC(=O)[C@H](CCC(N)=O)NC(=O)C(C)(C)NC(=O)[C@@H](N)Cc1c[nH]cn1)[C@@H](C)O)[C@@H](C)O)C(=O)N[C@@H](CCC(=O)O)C(=O)N[C@@H](CO)C(=O)N[C@@H](CCCNC(=N)N)C(=O)N[C@@H](CCCNC(=N)N)C(=O)N[C@@H](C)C(=O)N[C@@H](CCCNC(=N)N)C(=O)N[C@@H](CCC(=O)O)C(=O)N[C@@H](Cc1ccccc1)C(=O)N[C@H](C(=O)N[C@@H](CCC(N)=O)C(=O)N[C@@H](Cc1c[nH]c2ccccc12)C(=O)N[C@@H](CC(C)C)C(=O)N[C@@H](CC(C)C)C(=O)N[C@@H](CCCCNC(=O)CC[C@H](NC(=O)CC[C@H](NC(=O)CC[C@H](NC(=O)CCCCCCCCCCCCCCCCC(=O)O)C(=O)O)C(=O)O)C(=O)O)C(=O)N[C@H](C(N)=O)[C@@H](C)O)C(C)C` [Example 41, N^ε28-[(4S)-4-carboxy-4-[[(4S)-4-carboxy-4-[[(4S)-4-carboxy-4-(17-carboxyheptadecanoylamino)butanoyl]amino]butanoyl]amino]butanoyl]-[Aib2,Leu10,Glu15, Arg20,Glu21,Leu27,Lys28]-Glucagon amide] (H-H[Aib]QGTFTSDLSKYLESRRAREFVQWLLK([γGlu-γGlu-γGlu-C18 diacid])T-NH2; N-terminus assumed), the IC50 in series [1] was 0.3 nM. Besides, the “Purity loss; 14 days at 37° C.” value in series [2] is 1%.

Turning to `CC(C)C[C@H](NC(=O)[C@H](Cc1ccc(O)cc1)NC(=O)[C@H](CCCCN)NC(=O)[C@H](CO)NC(=O)[C@H](CC(C)C)NC(=O)[C@H](CC(=O)O)NC(=O)[C@H](CO)NC(=O)[C@@H](NC(=O)[C@H](Cc1ccccc1)NC(=O)[C@@H](NC(=O)CNC(=O)[C@H](CCC(N)=O)NC(=O)C(C)(C)NC(=O)[C@@H](N)Cc1c[nH]cn1)[C@@H](C)O)[C@@H](C)O)C(=O)N[C@@H](CCC(=O)O)C(=O)N[C@@H](CO)C(=O)N[C@@H](CCCNC(=N)N)C(=O)N[C@@H](CCCNC(=N)N)C(=O)N[C@@H](C)C(=O)N[C@@H](CCCNC(=N)N)C(=O)N[C@@H](CCC(=O)O)C(=O)N[C@@H](Cc1ccccc1)C(=O)N[C@H](C(=O)N[C@@H](CCC(N)=O)C(=O)N[C@@H](Cc1c[nH]c2ccccc12)C(=O)N[C@@H](CC(C)C)C(=O)N[C@@H](CC(C)C)C(=O)N[C@@H](CCCCNC(=O)COCCOCCNC(=O)COCCOCCNC(=O)CC[C@H](NC(=O)CC[C@H](NC(=O)CC[C@H](NC(=O)CCCCCCCCCCCCCCCCC(=O)O)C(=O)O)C(=O)O)C(=O)O)C(=O)N[C@H](C(N)=O)[C@@H](C)O)C(C)C` [Example 42, N^ε28-[2-[2-[2-[[2-[2-[2-[[(4S)-4-carboxy-4-[[(4S)-4-carboxy-4-[[(4S)-4-carboxy-4-(17-carboxyheptadecanoylamino)butanoyl]amino]butanoyl]amino]butanoyl]amino]ethoxy]ethoxy]acetyl]amino]ethoxy]ethoxy]acetyl]-[Aib2,Leu10,Glu15,Arg20,Glu21,Leu27,Lys28]-Glucagon amide] (H-H[Aib]QGTFTSDLSKYLESRRAREFVQWLLK([AEEA-AEEA-γGlu-γGlu-γGlu-C18 diacid])T-NH2; N-terminus assumed), the IC50 in series [1] stood at 0.3 nM. Also, in series [2], the “Purity loss; 14 days at 37° C.” value was 3%.

Consider `CC(C)C[C@H](NC(=O)[C@H](Cc1ccc(O)cc1)NC(=O)[C@H](CCCCN)NC(=O)[C@H](CO)NC(=O)[C@H](CC(C)C)NC(=O)[C@H](CC(=O)O)NC(=O)[C@H](CO)NC(=O)[C@@H](NC(=O)[C@H](Cc1ccccc1)NC(=O)[C@@H](NC(=O)CNC(=O)[C@H](CCC(N)=O)NC(=O)C(C)(C)NC(=O)[C@@H](N)Cc1c[nH]cn1)[C@@H](C)O)[C@@H](C)O)C(=O)N[C@@H](CC(=O)O)C(=O)N[C@@H](C)C(=O)N[C@@H](CCCNC(=N)N)C(=O)N[C@@H](CCCNC(=N)N)C(=O)N[C@@H](C)C(=O)N[C@@H](CCCNC(=N)N)C(=O)N[C@@H](CCC(=O)O)C(=O)N[C@@H](Cc1ccccc1)C(=O)N[C@H](C(=O)N[C@@H](CCC(N)=O)C(=O)N[C@@H](Cc1c[nH]c2ccccc12)C(=O)N[C@@H](CC(C)C)C(=O)N[C@@H](CC(C)C)C(=O)N[C@@H](CCCCNC(=O)CC[C@H](NC(=O)CC[C@H](NC(=O)COCCOCCNC(=O)COCCOCCNC(=O)CC[C@H](NC(=O)CCCCCCCCCCCCCCCCC(=O)O)C(=O)O)C(=O)O)C(=O)O)C(=O)N[C@H](C(N)=O)[C@@H](C)O)C(C)C` [Example 43, N^ε28-[(4S)-4-carboxy-4-[[(4S)-4-carboxy-4-[[2-[2-[2-[[2-[2-[2-[[(4S)-4-carboxy-4-(17-carboxyheptadecanoylamino)butanoyl]amino]ethoxy]ethoxy]acetyl]amino]ethoxy]ethoxy]acetyl]amino]butanoyl]amino]butanoyl]-[Aib2,Leu10,Ala16,Arg20,Glu21,Leu27,Lys28]-Glucagon amide] (H-H[Aib]QGTFTSDLSKYLDARRAREFVQWLLK([γGlu-γGlu-AEEA-AEEA-γGlu-C18 diacid])T-NH2; N-terminus assumed), for which, in series [1], the concentration for half-maximal inhibition (IC50) is 0.3 nM. In series [2], the “Purity loss; 14 days at 37° C.” value amounted to 2%.

In the case of `CC(C)C[C@H](NC(=O)[C@H](Cc1ccc(O)cc1)NC(=O)[C@H](CCCCN)NC(=O)[C@H](CO)NC(=O)[C@H](CC(C)C)NC(=O)[C@H](CC(=O)O)NC(=O)[C@H](CO)NC(=O)[C@@H](NC(=O)[C@H](Cc1ccccc1)NC(=O)[C@@H](NC(=O)CNC(=O)[C@H](CCC(N)=O)NC(=O)C1(NC(=O)[C@@H](N)Cc2c[nH]cn2)CCC1)[C@@H](C)O)[C@@H](C)O)C(=O)N[C@@H](CCC(=O)O)C(=O)N[C@@H](CO)C(=O)N[C@@H](CCCNC(=N)N)C(=O)N[C@@H](CCCNC(=N)N)C(=O)N[C@@H](C)C(=O)N[C@@H](CCCNC(=N)N)C(=O)N[C@@H](CCC(=O)O)C(=O)N[C@@H](Cc1ccccc1)C(=O)N[C@H](C(=O)N[C@@H](CCC(N)=O)C(=O)N[C@@H](Cc1c[nH]c2ccccc12)C(=O)N[C@@H](CC(C)C)C(=O)N[C@@H](CC(C)C)C(=O)N[C@@H](CCCCNC(=O)CC[C@H](NC(=O)CC[C@H](NC(=O)COCCOCCNC(=O)COCCOCCNC(=O)CC[C@H](NC(=O)CCCCCCCCCCCCCCCCC(=O)O)C(=O)O)C(=O)O)C(=O)O)C(=O)N[C@H](C(N)=O)[C@@H](C)O)C(C)C` [Example 44, N^ε28-[(4S)-4-carboxy-4-[[(4S)-4-carboxy-4-[[2-[2-[2-[[2-[2-[2-[[(4S)-4-carboxy-4-(17-carboxyheptadecanoylamino)butanoyl]amino]ethoxy]ethoxy]acetyl]amino]ethoxy]ethoxy]acetyl]amino]butanoyl]amino]butanoyl]-[Acb2,Leu10,Glu15,Arg20,Glu21,Leu27,Lys28]-Glucagon amide] (H-H[Ac4c]QGTFTSDLSKYLESRRAREFVQWLLK([γGlu-γGlu-AEEA-AEEA-γGlu-C18 diacid])T-NH2; N-terminus assumed), the 50% inhibitory concentration (IC50) in series [1] came out at 0.3 nM. Also, the “Purity loss; 14 days at 37° C.” value in series [2] was determined as 2%.

As for `CC(C)C[C@H](NC(=O)[C@H](CC(=O)O)NC(=O)[C@H](CC(C)C)NC(=O)[C@H](Cc1ccc(O)cc1)NC(=O)[C@H](CCCCN)NC(=O)[C@H](CO)NC(=O)[C@H](CC(C)C)NC(=O)[C@H](CC(=O)O)NC(=O)[C@H](CO)NC(=O)[C@@H](NC(=O)[C@H](Cc1ccccc1)NC(=O)[C@@H](NC(=O)CNC(=O)[C@H](CCC(N)=O)NC(=O)C1(NC(=O)[C@@H](N)Cc2c[nH]cn2)CCC1)[C@@H](C)O)[C@@H](C)O)C(=O)N[C@@H](CCCNC(=N)N)C(=O)N[C@@H](CCCNC(=N)N)C(=O)N[C@@H](C)C(=O)N[C@@H](CCCNC(=N)N)C(=O)N[C@@H](CC(=O)O)C(=O)N[C@@H](Cc1ccccc1)C(=O)N[C@H](C(=O)N[C@@H](CCC(N)=O)C(=O)N[C@@H](Cc1c[nH]c2ccccc12)C(=O)N[C@@H](CC(C)C)C(=O)N[C@@H](CC(C)C)C(=O)N[C@@H](CCCCNC(=O)CC[C@H](NC(=O)CC[C@H](NC(=O)COCCOCCNC(=O)COCCOCCNC(=O)CC[C@H](NC(=O)CC[C@H](NC(=O)CCCCCCCCCCCCCCCCC(=O)O)C(=O)O)C(=O)O)C(=O)O)C(=O)O)C(=O)N[C@H](C(N)=O)[C@@H](C)O)C(C)C` [Example 45, N^ε28-[(4S)-4-carboxy-4-[[(4S)-4-carboxy-4-[[2-[2-[2-[[2-[2-[2-[[(4S)-4-carboxy-4-[[(4S)-4-carboxy-4-(17-carboxyheptadecanoylamino)butanoyl]amino]butanoyl]amino]ethoxy]ethoxy]acetyl]amino]ethoxy]ethoxy]acetyl]amino]butanoyl]amino]butanoyl]-[Acb2,Leu10,Leu16,Arg20,Leu27,Lys28]-Glucagon amide] (H-H[Ac4c]QGTFTSDLSKYLDLRRARDFVQWLLK([γGlu-γGlu-AEEA-AEEA-γGlu-γGlu-C18 diacid])T-NH2; N-terminus assumed), in series [1], the concentration for half-maximal inhibition (IC50) amounted to 0.4 nM. For the same compound, the “Purity loss; 14 days at 37° C.” value in series [2] worked out at 3%.

Usually IC50 stands for the concentration that gives 50% inhibition.
